This note sets out measurements from ChEMBL document CHEMBL1201862, “PubChem BioAssay data set” (2004).

Where a name gives a salt, the structure may show the parent alone.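 Each compound was tested at five concentrations against cells in 96-well plates for 48 hours. Here, GI50 denotes the concentration required for 50% inhibition of growth.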 The source made the active and inactive calls. Rule as the data show it: active = GI50 up to about 1.1 µM and inactive = higher. Some results are limits rather than exact numbers.

Test systems include A549; CAKI-1; EKVX; HCT-116; HL-60; HOP-92; LOX IMVI; MOLT-4; NCI-H226; NCI-H23; NCI-H460; SK-MEL-5; SN12C; SNB-75; SR; SW-620; T47D; TK-10; MDA-N.
Holding throughout (assay): growth of human tumour cells (NCI), 48 h

In the case of `CC(=O)c1sc2c(c1OC(=O)c1ccc(Cl)cc1)c(=O)n(-c1ccccc1)c(=S)n2-c1ccccc1`, the GI50 is 25.4 µM (inactive) in the experiment with A549; 3.39 µM (inactive) in the experiment on CAKI-1; 11.4 µM (inactive) in the experiment on EKVX; 9.08 µM (inactive) in the experiment on HCT-116; 9.23 µM (inactive) in the experiment with HL-60; 3.25 µM (inactive) in the experiment on HOP-92. Besides, the GI50 in the experiment with LOX IMVI was 2.32 µM (inactive); in the experiment on MOLT-4, 1.56 µM (inactive); in the experiment with NCI-H226, 1.59 µM (inactive); in the experiment with NCI-H23 it was 17.5 µM (inactive); with NCI-H460 it was 4.86 µM (inactive); with SK-MEL-5, 2 µM (inactive). The GI50 in the experiment with SN12C is 2.06 µM (inactive); with SNB-75, 2.99 µM (inactive); in the experiment on SR it was 3.88 µM (inactive); with SW-620, 12.7 µM (inactive); in the experiment with T47D, 12.2 µM (inactive); in the experiment on TK-10, 22.4 µM (inactive).
With `NC(=S)N/N=C/c1cn(CCCl)c2ccccc12`, the GI50 with A549 was 34.9 µM (inactive); in the experiment on CAKI-1 it was 18.7 µM (inactive); in the experiment on EKVX it was 14.7 µM (inactive); in the experiment with HCT-116, 27.4 µM (inactive); in the experiment with HL-60, 9.57 µM (inactive); in the experiment with HOP-92, 21.9 µM (inactive). The GI50 in the experiment on LOX IMVI was 25 µM (inactive); in the experiment on MOLT-4 it was 14.2 µM (inactive); in the experiment on NCI-H23 it was > 100 µM (inactive); in the experiment with SK-MEL-5, 15.9 µM (inactive); in the experiment with SN12C, 89.7 µM (inactive); with SNB-75 it was 12.9 µM (inactive). Also, the results for the GI50 in the experiment with SR, with SW-620 and with TK-10 were 11 µM (inactive), 43.6 µM (inactive) and 90.2 µM (inactive), respectively.
With `N#Cc1nnn(-c2ccccc2)c1O`, the GI50 in the experiment with A549, in the experiment with CAKI-1, in the experiment with EKVX, with HCT-116, in the experiment on HL-60 and with LOX IMVI was > 100 µM (inactive) each time. For the same molecule, the GI50 in the experiment with MDA-N, in the experiment with MOLT-4, with NCI-H226, with NCI-H23, in the experiment with SK-MEL-5 and in the experiment with SN12C was > 100 µM (inactive) throughout. For the same molecule, the GI50 with SNB-75, with SW-620, in the experiment on T47D and in the experiment with TK-10 was > 100 µM (inactive) throughout.
In the case of `Cc1ccc(N/C(Sc2ccccc2)=C(/C(Cl)=C(Cl)Cl)[N+](=O)[O-])c(C)c1`, the GI50 in the experiment with A549 is 33.8 µM (inactive); in the experiment on CAKI-1, 17 µM (inactive); with EKVX it was 22.1 µM (inactive); with HCT-116 it was 17.1 µM (inactive); in the experiment with HL-60 it was 18.2 µM (inactive); with HOP-92 it was 14 µM (inactive). For the same molecule, the GI50 with LOX IMVI was 14.5 µM (inactive); with MOLT-4, 19.6 µM (inactive); in the experiment on NCI-H226, 24.6 µM (inactive); in the experiment on NCI-H23 it was 22.9 µM (inactive); in the experiment with NCI-H460, 16.8 µM (inactive); with SK-MEL-5 it was 25.1 µM (inactive). The GI50 with SN12C was 18.4 µM (inactive); in the experiment on SR, 23.3 µM (inactive); in the experiment on SW-620 it was 19.7 µM (inactive); in the experiment with TK-10 it was 45.6 µM (inactive).
With `O=C(/C=C/c1ccc(O)c([N+](=O)[O-])c1)CC(=O)/C=C/c1ccc(O)c([N+](=O)[O-])c1`, the GI50 in the experiment with A549 is 53.7 µM (inactive); with EKVX it was 50.9 µM (inactive); with HCT-116 it was 41.6 µM (inactive); in the experiment on HL-60, 21.7 µM (inactive); with LOX IMVI, 14.4 µM (inactive); in the experiment on MDA-N it was 86.5 µM (inactive). The GI50 in the experiment on NCI-H226 is > 100 µM (inactive); with NCI-H23, 34.8 µM (inactive); in the experiment with NCI-H460, 30.5 µM (inactive); in the experiment with SK-MEL-5 it was 49.7 µM (inactive); in the experiment with SN12C, > 100 µM (inactive); in the experiment on SNB-75 it was > 100 µM (inactive). Moreover, the GI50 in the experiment on SW-620 is 37.1 µM (inactive); in the experiment with TK-10, 92.5 µM (inactive).
Consider `Cn1c(=O)n2n(c1=O)[C@@H](c1ccccc1)[C@H]2c1ccccc1`, for which the GI50 is > 100 µM (inactive) in the experiment on A549; > 100 µM (inactive) in the experiment with CAKI-1; > 100 µM (inactive) in the experiment on EKVX; > 100 µM (inactive) with HCT-116; 20.6 µM (inactive) in the experiment with HL-60; > 100 µM (inactive) with HOP-92. For the same molecule, the GI50 was > 100 µM (inactive) in the experiment on LOX IMVI; > 100 µM (inactive) in the experiment with MOLT-4; > 100 µM (inactive) in the experiment on NCI-H226; 65.6 µM (inactive) in the experiment with NCI-H23; > 100 µM (inactive) with NCI-H460; > 100 µM (inactive) in the experiment with SK-MEL-5. In addition, the GI50 was > 100 µM (inactive) in the experiment on SN12C; 31 µM (inactive) in the experiment with SNB-75; > 100 µM (inactive) in the experiment with SR; > 100 µM (inactive) with SW-620; > 100 µM (inactive) in the experiment on TK-10.
In the case of `CCOP(=O)(OCC)/C(C#N)=C/c1cnc[nH]1`, the GI50 in the experiment with A549, in the experiment with CAKI-1, in the experiment on EKVX, in the experiment on HCT-116, in the experiment with HL-60 and in the experiment with HOP-92 was > 100 µM (inactive) each time. Moreover, the GI50 in the experiment on LOX IMVI, in the experiment on MOLT-4, in the experiment with NCI-H226, in the experiment with NCI-H23, with NCI-H460 and in the experiment with SK-MEL-5 was > 100 µM (inactive) each time. For the same molecule, the GI50 in the experiment with SN12C, in the experiment with SNB-75, in the experiment with SR, in the experiment with SW-620 and in the experiment with TK-10 was > 100 µM (inactive) in each case.
For the molecule `O=C1c2ccccc2-n2c1nc1ccc([N+](=O)[O-])cc1c2=O`, the GI50 is > 100 µM (inactive) in the experiment with A549; 20.2 µM (inactive) with CAKI-1; 93.1 µM (inactive) in the experiment with EKVX; 27.1 µM (inactive) in the experiment on HCT-116; 13.9 µM (inactive) in the experiment with HL-60; > 100 µM (inactive) in the experiment on HOP-92. The GI50 was 22.5 µM (inactive) in the experiment with LOX IMVI; 26.3 µM (inactive) in the experiment on MOLT-4; 25.6 µM (inactive) with NCI-H226; 48.2 µM (inactive) in the experiment with NCI-H23; > 100 µM (inactive) with NCI-H460; 95.9 µM (inactive) in the experiment with SK-MEL-5. Besides, the GI50 with SN12C is 49.2 µM (inactive); with SR, 28.8 µM (inactive); in the experiment with SW-620, 45.1 µM (inactive); in the experiment with T47D, 25.9 µM (inactive); with TK-10, > 100 µM (inactive).
In the case of `CC[C@]12CN3CCc4c([nH]c5ccccc45)[C@@](C(=O)OC)(c4cc5c(cc4OC)N(C)[C@H]4[C@@](O)(C(=O)OC)[C@H](OC(C)=O)[C@]6(CC)C=CCN7CC[C@]54[C@@H]76)CC(C3)[C@H]1O2` (some centres not stated) [VINLEUROSINE SULFATE], the GI50 in the experiment on A549 was 0.394 µM (active); with CAKI-1, 2.16 µM (inactive); in the experiment on EKVX, 10.8 µM (inactive); in the experiment with HCT-116 it was < 0.01 µM (active); in the experiment on HL-60, < 0.01 µM (active); in the experiment on HOP-92 it was 8.13 µM (inactive). Further, the GI50 in the experiment with LOX IMVI was < 0.01 µM (active); with MDA-N, < 0.01 µM (active); with MOLT-4, < 0.0156 µM (active); with NCI-H226, 0.221 µM (active); in the experiment on NCI-H23 it was 0.126 µM (active); in the experiment on NCI-H460, < 0.01 µM (active). The GI50 with SK-MEL-5 was < 0.01 µM (active); with SN12C it was < 0.01 µM (active); in the experiment on SNB-75, 0.0716 µM (active); with SW-620, < 0.0208 µM (active); in the experiment on TK-10, > 47.5 µM (inactive).
